According to patent US9994862B2, “Rice resistant to HPPD and ACCase inhibiting herbicides” (priority 2011, dated 2018):
“Also recorded” adds a separate entry of the source.

How the values were obtained:
[1] = tested on: common rice weeds; assay: Weed control by mesotrione in rice plots; type: in vivo; details: mesotrione alone; especially pre-plant or 2x the labeled rate of 210 gmai/ha
Method: FIG. 6A-6B is a photograph of results of trait tolerance trials; weed control by mesotrione herbicide applied pre-planting was evaluated; the plots were planted with a hybrid of the HPPD tolerant line ML0831266-03093; just before planting, the plot on the right FIG. 6B received an application of mesotrione at 210 gmai/ha; the plot on the left FIG. 6A had no herbicide applied either pre-plant or post-emergence; pictures were taken four weeks after planting showing differences in weed appearance.
Rice is tolerant to certain ACCase inhibitor herbicides, for example cyhalofop is registered for use in rice. However other ACCase herbicides kill or severely injure rice to varying degrees. […] The applied rates of both types of herbicides giving the weed control are well within the tolerance level of the respective ACCase and HPPD tolerant lines including the combined lines carrying tolerance to both HPPD and ACCase herbicides.
Further validation of the trait involved testing the mutant line ML0831266-03093 in the presence of common rice weeds. […] This level of grass weed control was completely unexpected as mesotrione is labeled for controlling broadleaf weeds in monocot crops.

[2] = tested on: line ML0831265-01493; assay: Mesotrione tolerance trials / herbicide bioassay; type: in vivo, rice
Excerpt: (§1) The mutant line is planted in rows or alternatively whole plots are planted and rows of the unmutated line (P1003) and other types of rice or whole plots are planted. Mesotrione is applied pre-emergence or alternatively it is applied post-emergence at the three to four leaf stage of the rice plants. Various rates of mesotrione are applied pre-emergence, pre-emergence followed by post-emergent, or post-emergent with a single or sequential application. Post-emergent applications are applied at the 3-4 leaf stage of the rice.
With low rates (105 gm ai/ha) of mesotrione applied both the mutant line as well as the original unmutated line survive. However, other types of rice, such as the mutant line with ACCase tolerance ML0831265-01493 and the associated unmutated line R0146 are killed at these rates of mesotrione. […] The higher tolerance to mesotrione makes the line ML0831266-03093 of commercial value as both the tolerance can be controlled or bred into new varieties and it is of a high enough level to allow commercial weed control in rice with the application of mesotrione herbicide and possibly other HPPD inhibiting herbicides (FIG. 19A initial results, FIG. 19B new results after 1 year, and FIG. 22—trial results on various rice lines).

[3] = tested on: permanent mutant population (lines derived from P1003, R0146, P1062); assay: Mesotrione screening of the permanent mutant population; type: in vivo, rice; details: 255.1 gm ai per acre, within twelve hours after planting
Excerpt: A mutation breeding program was initiated to develop proprietary herbicide resistant/tolerant lines. A permanent mutant population was created by exposing approximately 10,000 seeds (estimated by the average weight of a kernel) of three rice lines including P1003, R0146, and P1062 to both mutagens sodium azide (AZ) and methyl-nitrosourea (MNU). The treated seeds were planted. Individual plants were harvested creating 8,281 potentially […] lines. The lines have been maintained as a permanent mutant population for trait screening.
Resistance to mesotrione herbicide was found by screening the permanent mutant population. All lines in the permanent mutant population were planted into a dry seed bed. Within twelve hours after planting mesotrione (Callisto®) was applied at a rate of 255.1 gm ai per acre. The field was immediately flushed with water and kept moist through periodic flushing. The seedlings grew, many were bleached white and all lines derived from R0146 died whereas plants lived from 21 lines derived from the P1003 and 2 derived from P1062 mutation populations. The HPPD gene was sequenced, and no genetic mutation was identified causing any amino acid substitutions (SEQ ID NOs: 1, 2, 3).

[4] = tested on: unmutated line P1003; assay: Mesotrione tolerance trials / herbicide bioassay; type: in vivo, rice
Excerpt: (§2) Selection of material inheriting mesotrione tolerance is accomplished by a simple herbicide bioassay. A high rate of mesotrione (at least 420 gm ai/ha) is applied allowing differentiation of heterozygous individuals from homozygous individuals and the tolerance level of the […] line from the inherent tolerance level in the background of some types of rice. In one example a rate of 105 gm ai/ha is applied followed three weeks later by a second application of 630 gm ai/ha. In another example a rate of 420 gm ai/ha is applied in a single application. Yet another example entails applying the herbicide at a rate of 630 gm ai/ha. Herbicide applications are done at the three to four leaf stage of seedling growth. The ideal situation is to have also planted near or within the plants to be selected a set of plants from the original mutant mesotrione tolerant donor line ML0831266-03093, (FIG. 18A) a row of plants of the wild-type of the […] line, P1003 (FIG. 18B), and a row of the line involved as the other parent in the cross (FIG. 18C). These control lines allow easy differentiation for inheritance of the tolerance provided by the ML0831266-03093 mutant line through comparison of the response in the plants to be selected with the control lines. Only plants that live and are relatively healthy will have inherited and be homozygous for the tolerance level provided by the ML0831266-03093 mutant line (FIG. 18A).
as §1
(§3) Seedlings of size 3 to 4 leaves are sprayed with mesotrione herbicide. In one set of 89 plants mesotrione is first applied at 105 gm ai/ha killing 23 plants. Both the mutant line control ML0831266-03093 and the unmutated line P1003 survived the herbicide application while the unmutated line R0146 was killed. The surviving plants including some additional plants making a total of 95 are then sprayed with another treatment of mesotrione at a rate of 630 gm ai/ha killing or injuring 67 while 28 survived. (FIG. 23) The surviving ratio of plants to those killed or injured fits a one quarter ratio with a chi squared value of 1.03, well within the expected for a single recessive gene. Another set of F2 individuals of size 78 individuals are sprayed with a single application of mesotrione herbicide at a rate of 420 gm ai/ha resulting in 26 plants surviving also fitting in the expected one quarter ratio for a single recessive gene with a chi square value of 2.88 (Table 2).

[5] = tested on: unmutated line R0146; assay: Mesotrione tolerance trials / herbicide bioassay; type: in vivo, rice
Excerpt: as §2, §1, §3

[6] = one application at 105 gai/ha followed by a second application of 630 gai/ha

CS(=O)(=O)c1ccc(C(=O)C2C(=O)CCCC2=O)c([N+](=O)[O-])c1 [mesotrione]
weed control by mesotrione [1]: well controlled; also recorded: prevalent control; also recorded: Control of common weeds in rice was also achieved
sensitivity to mesotrione ([2]; in vivo): highly susceptible; also recorded: highly sensitive
survival after mesotrione ([2]; low rate 105 gm ai/ha): killed
number of lines derived from P1003 with plants that lived [3]: 21 lines
number of lines derived from P1062 with plants that lived [3]: 2 lines
response of lines derived from R0146 [3]: died
survival after mesotrione ([4]; higher rates): killed or severally injured
survival after mesotrione ([4]; low rate 105 gm ai/ha): survived
response of the rice to mesotrione [4, 6]: severely injured
survival after mesotrione ([5]; low rate 105 gm ai/ha): killed
response of the rice to mesotrione [5, 6]: completely killed
